Entries after “also recorded” stand apart in the source; their conditions may differ.
Experiments:
human neutrophils = experiment: Neutrophil phagocytosis and oxidative burst (Phagotest, Bursttest); format: cell-based
Protocol: Data (mean±SD) are representative of 6 different experiments.
(§1) The quantitative determination of neutrophil phagocytosis and oxidative burst was performed by flow cytometry using the Phagotest and the Bursttest (Orpegen Pharma, Heidelberg, Germany) following the manufacturers' recommendations. A FITC-labelled opsonized E. coli was used to determine the general phagocytic activity (ingestion of one or more bacteria per cell) and the individual cellular phagocytic activity (number of bacteria per cell). For evaluation of oxidative burst activity, unlabeled opsonized E. coli, fMLP, PMA LPS and activated- or non-activated-platelets (30:1) were used as stimulants and DCFDA as a fluoregenic substrate (Invitrogen) accordingly with manufacturers' instructions.

[1] = test system: TREM-1 ligand binding to immobilized TREM-1; experiment: Surface plasmon resonance, LPS-stimulated neutrophils supernatants on rsTREM-1-coated sensor chip; set-up: species or system human; settings: FIG. 1D
Protocol: (C-D) Surface plasmon resonance assays of LPS-stimulated neutrophils supernatants to a rsTREM-1-coated sensorship in absence (C) or presence (D) of LR17.
Detection of TREM-1-ligand on LPS-stimulated neutrophils supernatants was assessed by binding to a recombinant soluble form of TREM-1 (rsTREM-1) coated on a CM5 sensor chip with the BIAcore X instrument at 25° C. with a flow rate of […]. Binding specificity was verified through competition with the soluble rsTREM-1. Inhibition of TREM-1-ligand binding by LR17 was assessed.

TREM-1 [2] = experiment: Protein phosphorylation analysis in stimulated neutrophils; format: cell-based, human
Protocol: For these experiments, isolated human neutrophils were stimulated with TREM-1 agonist (αTREM-1, 5 μg/mL) with or without LR17 (30 μg/mL) or control LR17-scrambled peptide (30 μg/mL) at indicated times. Data are representative of at least 5 different experiments. Results are mean±SD. p values are ***p<0.001 **p<0.01 *p<0.05 [αTREM-1+LR17] versus [αTREM-1].
(A) Activation of TREM-1 phosphorylation pathway: Western Blot of lysates of neutrophils stimulated for 1, 3, 10, 30 and 60 minutes, analysed with antibody to phospho (p)-p38 and (p)-ERK1/2.
For these experiments, isolated human neutrophils or monocytes were stimulated with LPS (0.1 μg/mL) and TREM-1 agonist (αTREM-1, 5 μg/mL) with or without LR17 (30 μg/mL) or control LR17-scrambled peptide (30 μg/mL), at indicated times. Data are representative of at least 5 different experiments. Results are mean±SD. p values are ***p<0.001 **p<0.01 *p<0.05 [LPS/LR17] versus [LPS] or [LPS+αTREM-1/LR17] versus [LPS+αTREM-1].
(A) Western Blot of lysates of neutrophils stimulated for 1, 3, 10, 30 and 60 minutes, analysed with antibody to phosphor (p)-p38 and (p)-ERK1/2.
(§2) Depending on the experiment, cells were stimulated in complete medium supplemented with 100 ng/mL of E. Coli LPS (0111:B4, Sigma-Aldrich), anti-TREM-1 mAb (R&Dsystems) and TLT-1-peptides at different times and concentrations on 96-wells plates (Greiner Bio One). Supernatants were collected for cytokine measurements and cells subjected to flow cytometry or lysed for protein phosphorylation analyses and NFkB activity measurement.
Stimulated PMNs were lysed at 1, 3, 10, 30 and 60 minutes with PhosphoSafe Extraction Reagent (Novagen) and centrifuged for 5 minutes at 16,000 g at 4° C. to collect the supernatant. Protein concentration was determined according to Bradford's method (Pierce). […] Alternatively, PMNs were analyzed after 20 minutes of stimulation for a panel of multiple phosphorylated proteins by immunoblot (Human Phospho-Kinase Array, R&Dsystems). Acquisition and quantitative signals density analyses were done by LAS-4000 imager and Multi-Gauge software (Fujifilm).

TREM-1 [3] = experiment: Cytokine expression and production by stimulated neutrophils and monocytes; format: cell-based, human
Protocol: (E) Cytokines expression: TNF-α mRNA levels in neutrophils stimulated for 6 hours.
(F) Cytokines production: ELISA of TNF-α in neutrophils treated for 2, 6 and 24 hours
(F) Cytokines expression: TNF-α mRNA levels in neutrophils stimulated for 6 hours.
(G-H) Cytokines production: ELISA of TNF-α, in neutrophils treated for 2, 6 and 24 hours.
as §2
Cytokines in supernatants of stimulated human cells or mouse plasma were measured by ELISA (human and mouse Quantikine ELISA kits, R&Dsystems) and cytokines panel assays (Proteome Profiler Human Cytokine Array Kit, Panel A and Proteome Profiler Mouse Cytokine Array Kit, Panel A, R&Dsystems) according to manufacturers' recommendations.

TREM-1 ligand (agonist) = experiment: Immunoblot revealed by mouse anti-TREM-1 mAb (TREM-1 agonist); format: binding; settings: FIG. 1A
Description: To determine whether sTLT-1 may specifically bind to the TREM-1 ligand and thus interfere with the TREM-1/TREM-1 ligand interaction, we used a specific TREM-1 agonist known to bind and activate TREM-1, mimicking TREM-1 engagement by its ligand.

[4] = test system: Trem-1 silenced human monocytes; experiment: TNF-α production by Trem-1 silenced monocytes; format: cell-based; settings: Trem-1 siRNA; LPS/anti-TREM-1 mAb
Protocol: (I) ELISA of TNF-α produced by native or Trem-1 silenced human monocytes.
TREM-1 silencing was performed with Human Monocyte Nucleofector Kit (Amaxa) using siRNA sequences obtained from Qiagen. Isolated monocytes were electroporated with siRNA (without siRNA and with siRNA without electroporation as negative control, and with a GFP-reporter plasmid for positive control) and cultured for 24 hours in Human Monocyte Nucleofector Medium (Amaxa) before stimulation. TREM-1 expression was then assessed by quantitative RT-PCR and flow cytometry 24 hours after transfection. Medium was changed and monocytes were stimulated with LPS, anti-TREM-1 mAb and TLT-1-peptides for 24 hours. Therefore, medium was collected for cytokine measurement.

TREM-1 [5] = experiment: ROS production by neutrophils (DCFDA, flow cytometry); format: cell-based, human; settings: peptide 30 μg/mL
Protocol: (D) ROS production: Flow cytometric quantification (DCFDA reduction) of neutrophils ROS production after 2 hours stimulation.
as §1

LQEEDAGEYGCMVDGAR (listed as Homo sapiens) [LR17]
neutrophil oxidative burst mediated by E. coli (human neutrophils): decreased | neutrophils' phagocytic properties (human neutrophils; E. coli): did not alter | PMA- or fMLP-induced oxidative burst (human neutrophils; not shown): no action | binding of the TREM-1 ligand to immobilized TREM-1 [1]: able to block the binding | phosphorylation of p38 and ERK1/2 (TREM-1 [2]; LPS 0.1 μg/mL with or without αTREM-1, peptide 30 μg/mL): decreased | phosphorylation of mTOR, Lyn, AKT, MSK1/2, MEK 1/2, GSK 3α/β, RSK, and p53 (phosphoprotein arrays) (TREM-1 [2]; TREM-1 signalling, data not shown): reduced | p38 MAPK and ERK 1/2 phosphorylation (TREM-1 [2]; αTREM-1 5 μg/mL, peptide 30 μg/mL, 1-60 minutes): partly abrogated | production of TNF-α, IL-6, IL-8, GRO-α, IL-1β, IL-16, MCP-1, MIP-1β and RANTES (broad cytokine arrays) (TREM-1 [3]): decreased production | LPS associated TNF-α secretion by neutrophils and monocytes, gene and protein level (TREM-1 [3]; LPS): dose-dependently reduced | synergy of αTREM-1 with LPS for cytokine production (TREM-1 [3]; LPS + αTREM-1): blocked; also recorded: abrogated | effects in human monocytes and upon TLR2 (Pam3SK4) stimulation (TREM-1 [3]; not shown): confirmed to occur | cytokine production by activated neutrophils, gene and protein levels (TNF-α, IL-6, IL-8) (TREM-1 [3]; αTREM-1 5 μg/mL, peptide 30 μg/mL): able to decrease cytokine production | αTREM-1 induced TNF-α production by neutrophils (TREM-1 [3]; αTREM-1 alone): abrogated | binding to the TREM-1 ligand (TREM-1 agonist, anti-TREM-1 mAb) (TREM-1 ligand (agonist)): able to bind the TREM-1 ligand | TNF-α synthesis by silenced monocytes [4]: did not show any effect | intracellular ROS production (TREM-1 [5]; LPS 0.1 μg/mL with or without αTREM-1): decreased | ROS production by neutrophils (TREM-1 [5]; TREM-1 agonist and platelets as inducers, 2 hours): partly prevented
